Measurements reported in US9249448B2 (priority 2010, dated 2016).

Biological target: protein of SEQ ID NO 1 (yxel gene product) (Bacillus subtilis, UniProt P54948, G69A/I70F/P219S/T91M)
Conditions: sodium acetate 100 mM final concentration; substrate 0.2 mg/ml, 37°, 15 min, PBS buffer; compared with background activity of plasmid-free E. coli strain
Description: Cells obtained as in example 2 were harvested by centrifugation and washed twice with PBS buffer to remove residual medium components. The final cell pellet was resuspended in PBS buffer (per liter water: 8 g NaCl, 0.2 g KCl, 1.44 g Na2HPO4, 0.24 g K H2PO4, pH 7.4) to reach a final OD600 of 30. This cell suspension of strains (either without plasmid or carrying the expression vectors described in Example 1) was used for the activity tests. The washed cell suspensions were contacted in PBS buffer with N-alpha-lauryl-glutamin (0.2 mg/ml final concentration, “LG” in FIG. 35), at 37° (final volume 0.25 ml) for 15 min. The actual test was performed as described in example 7 of WO 02/092024 A2, with GC as the test method.

protein of SEQ ID NO 1 (yxel gene product), sequence (P54948 whole entry G69A/I70F/T91M/P219S): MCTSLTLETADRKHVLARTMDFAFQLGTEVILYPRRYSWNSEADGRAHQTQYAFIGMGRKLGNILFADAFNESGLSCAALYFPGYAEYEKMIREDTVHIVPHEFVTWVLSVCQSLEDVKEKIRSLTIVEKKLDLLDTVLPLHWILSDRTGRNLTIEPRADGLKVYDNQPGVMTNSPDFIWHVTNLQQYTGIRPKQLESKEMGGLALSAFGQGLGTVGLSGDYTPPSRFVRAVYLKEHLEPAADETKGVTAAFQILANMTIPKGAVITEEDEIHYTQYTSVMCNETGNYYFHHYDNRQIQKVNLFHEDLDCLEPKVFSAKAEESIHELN

With `CC(=O)[O-].[Na+]` [sodium acetate] the “enzyme activity (inhibition of N-alpha-lauryl-glutamin cleavage)” value was “inhibited to the level of the background activity”.
